Results reported in PubChem BioAssay AID1963968 (Molecular Pharmacology Branch, DTP, NCI, 2024).
Values joined by “and” are separate entries in the source; they are usually repeats but may differ in a detail not shown here. Identical values can stand only once.

Tested on: 945468-187-T-J3-PDC spheroids with HUVEC/MSC, viability
Experiment: Anticancer human tumor 945468-187-T-J3-PDC patient-derived rectal carcinoma cell line growth inhibition [PI3K]
Details: for viability, T/C: stronger effect = lower value
Description: Combinatorial screen of targeted agents with the PI3K inhibitors inavolisib, alpelisib, duvelisib, and copanlisib in multi-cell type tumor spheroids
A high-throughput screen of multi-cell type tumor spheroids was designed to identify active combinations of targeted small molecules and PI3K pathway inhibitors. Complex spheroids include a stromal component modeled by human endothelial cells (HUVEC) and fibroblasts modeled by human mesenchymal stem cells (MSCs). The concentration ranges selected for each drug and investigational agent were based upon clinically achievable concentrations if the clinical Cmax of the agent was known.
Compounds. The drugs and investigational agents: inavolisib (NSC800729), alpelisib (NSC765974), duvelisib (NSC772469), copanlisib (NSC816437), ipatasertib (NSC767898), afuresertib (NSC778305), talazoparib (NSC767125), sapanisertib (NSC764658), selumetinib (NSC741078), tovorafenib (DAY101, NSC766906), vemurafenib (NSC761431), ravoxertinib (NSC781343), sotorasib (NSC818433), MRTX1133 (NSC 836407), abemaciclib (NSC 768073), palbociclib (NSC758247), venetoclax (NSC 766270), SY5609 (NSC837396), enzalutamide (NSC755605), and darolutamide (NSC825331), were obtained from the National Cancer Institute (NCI) Developmental Therapeutics Program Chemical Repository. The FDA-approved anticancer drug set is available from the NCI Developmental Therapeutics Program. […] The stock solutions were prepared in dimethyl sulfoxide (DMSO, Sigma-Aldrich, St. Louis, MO, cat. D2650) at 800-fold the tested concentration and stored at -70 degrees C prior to their use. All drugs and investigational agents were tested over a range starting from a high concentration at or near the clinical Cmax and decreasing in half-log increments. If the clinical Cmax for an agent had not been determined, the highest concentration tested was 10 microM.
Cell Culture. All cells were maintained in an incubator at 37 degrees C and 5% CO2 with 95% humidity. The PDC lines were cultured according to standard operating procedures established by the NCI PDMR (https://pdmr.cancer.gov/sops/default.htm). All PDCs were thawed and cultured in Matrigel-coated flasks prepared with a working solution of 1X Ham's F-12 nutrient mix, without supplementation (Invitrogen, Waltham, MA, cat. 11765054), 100 U/mL penicillin-streptomycin (Invitrogen, cat. 15140122), and 2.5% Matrigel (Corning Inc., Corning, NY, cat. 354248) for the first three passages. The 354836-022-R-J1-PDC, 475296-252-R-J1-PDC, and 997726-040-R-J2-PDC lines were cultured in 6A media, which includes advanced DMEM/F-12 (Thermo Fisher Scientific, cat. 12634028), 10 mM HEPES (Thermo Fisher Scientific, cat. 15630080), 1X GlutaMAX supplement (Thermo Fisher Scientific, cat. 35050061), 0.1 mg/mL primocin (InvivoGen, San Diego, CA, cat. ant-pm-2), 10% defined fetal bovine serum, heat inactivated (HyClone Laboratories Inc., Logan, UT, cat. SH30070.03HI), 50% L-WRN conditioned media (ATCC, cat. CRL-3276), 1.25 mM N-Acetyl-L-cysteine (Sigma-Aldrich, cat. A9165), 10 mM nicotinamide (Sigma-Aldrich, cat. N0636), 1X B-27 supplement (Thermo Fisher Scientific, cat. 17504044), 1X N-2 supplement (Thermo Fisher Scientific, cat. 17502048), and 10 microM Y-27632 dihydrochloride (Tocris Bioscience, Bristol, United Kingdom, cat. 1254). The 624824-186-R-J2-PDC line was cultured in 6C/Colon 1B media, which includes all 6A media components plus 50 ng/mL human EGF recombinant protein (Thermo Fisher Scientific, cat. PHG0311). […]

[1] = compound alone, run of 06/12/2023
[2] = compound alone, run of 06/13/2023
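Further: spheroids exposed to agents for 7 days before viability read.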
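Wherever viability, T/C is given: 100% = DMSO vehicle control viability.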

Structure (SMILES)	viability, T/C (compound 0.000316 µM)	viability, T/C (compound 0.001 µM)	viability, T/C (compound 0.00316 µM)	viability, T/C (compound 0.01 µM)	viability, T/C (compound 0.0316 µM)	viability, T/C (compound 0.1 µM)	IC50 (curve of compound)	viability, T/C (compound 0.316 µM)	viability, T/C (compound 1 µM)	viability, T/C (compound 3.16 µM)	viability, T/C (compound 10 µM)	IC50 [1]	IC50 [2]	viability, T/C (compound 0.00949 µM)	viability, T/C (compound 0.03 µM)	viability, T/C (compound 0.0949 µM)	viability, T/C (compound 0.3 µM)	viability, T/C (compound 0.949 µM)
CC(=O)c1c(C)c2cnc(Nc3ccc(N4CCNCC4)cn3)nc2n(C2CCCC2)c1=O	101% [middle of 4 runs]	100% [middle of 4 runs]	83.2% and 102% (2×) and 91.3%	93.4% [middle of 4 runs]	113% [middle of 4 runs]	103% (2×) and 106% and 99.3%	> 100 nM	–	–	–	–	–	–	–	–	–	–	–
CC(C)NCC(C(=O)N1CCN(c2ncnc3c2C(C)CC3O)CC1)c1ccc(Cl)cc1 (stereo unspecified)	–	–	–	–	92.6% [middle of 4 runs]	–	–	100% [middle of 4 runs]	94.6% [middle of 4 runs]	65.2% [middle of 4 runs]	39.3% [middle of 4 runs]	–	–	–	–	–	–	–
CC(C)n1nc(-c2ccc3oc(N)nc3c2)c2c(N)ncnc21	91.3% [middle of 4 runs]	94.2% [middle of 4 runs]	104% [middle of 4 runs]	102% [middle of 4 runs]	–	–	> 100 nM and 93.9 nM	–	–	–	–	–	–	–	–	–	–	–
CC(Nc1ccc2c(c1)OCCn1cc(N3C(=O)OCC3C(F)F)nc1-2)C(N)=O (stereo unspecified)	–	–	103% [middle of 7 runs]	97.2% [middle of 7 runs]	99.6% [middle of 7 runs]	–	–	99.6% [middle of 7 runs]	73% [middle of 7 runs]	–	–	> 1000 nM	–	–	–	–	–	–
CC(Nc1ncnc2nc[nH]c12)c1cc2cccc(Cl)c2c(=O)n1-c1ccccc1 (stereo unspecified)	–	–	–	–	100% [middle of 8 runs]	96% [middle of 8 runs]	–	96% [middle of 8 runs]	99.5% [middle of 8 runs]	98.2% [middle of 8 runs]	98.8% [middle of 8 runs]	–	> 10000 nM	–	–	–	–	–
CCN1CCN(Cc2ccc(Nc3ncc(F)c(-c4cc(F)c5nc(C)n(C(C)C)c5c4)n3)nc2)CC1	–	–	91.2% [middle of 4 runs]	103% and 85.4% and 90.3% (2×)	97.6% [middle of 4 runs]	107% [middle of 4 runs]	> 1000 nM	110% [middle of 4 runs]	99.2% [middle of 4 runs]	–	–	–	–	–	–	–	–	–
COc1c(OCCCN2CCOCC2)ccc2c3n(c(=NC(=O)c4cnc(N)nc4)nc12)CCN3	–	–	96% [middle of 8 runs]	96.8% [middle of 8 runs]	95.7% [middle of 8 runs]	39.7% [middle of 8 runs]	–	19.6% [middle of 8 runs]	16.4% [middle of 8 runs]	–	–	–	80.4 nM [middle of 8 runs]	–	–	–	–	–
C[C@@H](NC(=O)c1ncnc(N)c1Cl)c1ncc(C(=O)Nc2cc(C(F)(F)F)c(Cl)cn2)s1	–	–	–	–	94.2% [middle of 4 runs]	104% [middle of 4 runs]	> 10000 nM	101% (2×) and 91.3% and 98.2%	105% [middle of 4 runs]	106% [middle of 4 runs]	108% [middle of 4 runs]	–	–	–	–	–	–	–
Cc1nc(NC(=O)N2CCCC2C(N)=O)sc1-c1ccnc(C(C)(C)C(F)(F)F)c1 (stereo unspecified)	–	–	–	–	90% [middle of 7 runs]	96% [middle of 8 runs]	–	99.1% [middle of 8 runs]	103% [middle of 8 runs]	106% [middle of 8 runs]	62.1% [middle of 8 runs]	> 10000 nM	–	–	–	–	–	–
Cn1cnc2c(F)c(Nc3ccc(Br)cc3Cl)c(C(=O)NOCCO)cc21	–	–	–	–	–	–	> 3000 nM	–	–	–	–	–	–	103% [middle of 4 runs]	109% [middle of 4 runs]	116% [middle of 4 runs]	119% (2×) and 99.5% and 130%	108% [middle of 4 runs]
Cn1ncnc1[C@H]1c2n[nH]c(=O)c3cc(F)cc(c23)N[C@@H]1c1ccc(F)cc1	101% and 102% and 91.8%	91.2% and 106% and 101%	99.4% and 89% and 90.5%	86.2% and 91.3% and 94.7%	98.2% and 92.9% and 117%	110% and 96.3% and 103%	> 100 nM	–	–	–	–	–	–	–	–	–	–	–
